One assay has as its target T1, THR beta-LBD (Homo sapiens, UniProt P10828).
T1 construct: THR beta-LBD (the final concentration is 0.5 nM) was added to the 384-well assay plate; purchased Invitrogen PV4686
T1 sequence (P10828 217-461 limits assumed): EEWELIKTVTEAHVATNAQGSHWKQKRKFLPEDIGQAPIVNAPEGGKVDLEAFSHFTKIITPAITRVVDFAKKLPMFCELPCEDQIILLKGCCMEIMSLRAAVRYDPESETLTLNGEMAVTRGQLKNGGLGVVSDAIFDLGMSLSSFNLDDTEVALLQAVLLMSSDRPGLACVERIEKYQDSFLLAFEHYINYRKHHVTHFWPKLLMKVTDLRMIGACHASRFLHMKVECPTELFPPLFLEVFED
Nature of the assay: THR-β Coactivator Peptide Recruitment Assay (LanthaScreen TR-FRET). The format is biochemical. The note with it: TR-FRET coactivator recruitment, THR beta-LBD 0.5 nM; for EC50: read-out: THRβ EC50. The essentials:
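GST-tagged THR beta-LBD (0.5 nM) with test compound recruits fluorescein-SRC2-2 coactivator peptide (0.1 nM), detected with Tb-anti-GST antibody (2 nM).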

A further assay addresses T2, THR alpha-LBD (Homo sapiens, UniProt P10827).
T2 construct: except that THR alpha-LBD of a final concentration 0.25 nM was used; purchased Invitrogen PV4687
Nature of the assay: THR-α Coactivator Peptide Recruitment Assay (LanthaScreen TR-FRET). Format: biochemical. The note with it: TR-FRET coactivator recruitment, THR alpha-LBD 0.25 nM; for EC50: read-out: THRα EC50. The essentials: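 TR-FRET coactivator recruitment with THR alpha-LBD at 0.25 nM final, Fluorescein-SRC2-2 peptide 0.1 nM and Tb-labeled anti-GST antibody 2 nM; 2 h incubation at room temperature. 520/495 nm emission ratio fitted to a four-parameter sigmoidal curve to give EC50.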
A general note: TR-FRET usually uses a lanthanide donor and a delayed reading to cut background.

By EC50 is commonly meant the concentration that produces a half-maximal response.

T2 sequence (P10827 163-410 isoform P10827-2 limits assumed, other chains not shown): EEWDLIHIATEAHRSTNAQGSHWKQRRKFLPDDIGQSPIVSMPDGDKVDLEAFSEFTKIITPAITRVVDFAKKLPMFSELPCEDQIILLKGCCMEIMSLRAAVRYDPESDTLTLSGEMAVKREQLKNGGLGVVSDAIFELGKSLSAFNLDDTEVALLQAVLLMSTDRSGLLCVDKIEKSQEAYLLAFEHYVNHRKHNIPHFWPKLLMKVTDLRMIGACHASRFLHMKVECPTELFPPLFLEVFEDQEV

Turning to `O=C(CNS(=O)(=O)c1cc(Oc2c(Cl)cc(-n3nc(C(F)F)c(=O)[nH]c3=O)cc2Cl)ncc1O)NC1CC1` [Compound 120, N-cyclopropyl-2-((2-(2,6-dichloro-4-(6-(difluoromethyl)-3,5-dioxo-4,5-dihydro-1,2,4-triazin-2(3H)-yl)phenoxy)-5-hydroxypyridine)-4-sulfonamido)acetamide], at THR beta-LBD, the “THRβ Emax” value is recorded as “C (<75)” and the EC50 is more than 100 nM. For the same compound, on THR alpha-LBD, the “THRα Emax” value is reported as “C (<40)” and the EC50 is more than 1000 nM.
In the case of `O=C(NC1CC1)C1(NS(=O)(=O)c2cc(Oc3c(Cl)cc(-n4nc(C(F)F)c(=O)[nH]c4=O)cc3Cl)ncc2O)CCC1` [Compound 121, N-cyclopropyl-1-((2-(2,6-dichloro-4-(6-(difluoromethyl)-3,5-dioxo-4,5-dihydro-1,2,4-triazin-2(3H)-yl)phenoxy)-5-hydroxypyridine)-4-sulfonamido)cyclobutane-1-carboxamide], on THR beta-LBD, the “THRβ Emax” value was “C (<75)” and the EC50 was more than 100 nM. At THR alpha-LBD, the “THRα Emax” value is on record as “C (<40)” and the EC50 is more than 1000 nM.
For `CC1(C)CC(NS(=O)(=O)c2cc(Oc3c(Cl)cc(-n4nc(C(F)F)c(=O)[nH]c4=O)cc3Cl)ncc2O)C1` [Compound 122], on THR beta-LBD, the “THRβ Emax” value is “C (<75)” and the EC50 was in the range of 2 to 20 nM. On THR alpha-LBD, the “THRα Emax” value is “B (40~85)” and the EC50 is 200 to 1000 nM.
Taken in the same sequence, the figures for `O=c1[nH]c(=O)n(-c2cc(Cl)c(Oc3cc(S(=O)(=O)NC4CCC4)c(O)cn3)c(Cl)c2)nc1C(F)F` [Compound 123, N-cyclobutyl-2-(2,6-dichloro-4-(6-(difluoromethyl)-3,5-dioxo-4,5-dihydro-1,2,4-triazin-2(3H)-yl)phenoxy)-5-hydroxypyridine-4-sulfonamide] were “A (90~110)”, less than 2 nM, “A (85~110)” and 2 to 200 nM.
For `O=c1[nH]c(=O)n(-c2cc(Cl)c(Oc3cc(S(=O)(=O)NC4CCCC4)c(O)cn3)c(Cl)c2)nc1C(F)F` [Compound 124, N-cyclopentyl-2-(2,6-dichloro-4-(6-(difluoromethyl)-3,5-dioxo-4,5-dihydro-1,2,4-triazin-2(3H)-yl)phenoxy)-5-hydroxypyridine-4-sulfonamide] the same measures were “B (75~90)”, less than 2 nM, “B (40~85)” and 2 to 200 nM.
On to `N#C[C@H]1C[C@@H](NS(=O)(=O)c2cc(Oc3c(Cl)cc(-n4nc(C(F)F)c(=O)[nH]c4=O)cc3Cl)ncc2O)C1` [Compound 125, N-((1s,3s)-3-cyanocyclobutyl)-2-(2,6-dichloro-4-(6-(difluoromethyl)-3,5-dioxo-4,5-dihydro-1,2,4-triazin-2(3H)-yl)phenoxy)-5-hydroxypyridine-4-sulfonamide], for which, on THR beta-LBD, the “THRβ Emax” value was “B (75~90)” and the half-maximal effective concentration (EC50) was 2 to 20 nM. At THR alpha-LBD, the “THRα Emax” value is reported as “B (40~85)” and the concentration giving a half-maximal response (EC50) fell in the range of 200 to 1000 nM.
For the compound `CNS(=O)(=O)c1cc(Oc2c(Cl)cc(-n3nc(C(F)F)c(=O)[nH]c3=O)cc2Cl)ncc1OC` [Compound 127, 2-(2,6-dichloro-4-(6-(difluoromethyl)-3,5-dioxo-4,5-dihydro-1,2,4-triazin-2(3H)-yl)phenoxy)-5-methoxy-N-methylpyridine-4-sulfonamide], at THR beta-LBD, the “THRβ Emax” value is “C (<75)” and the half-maximal effective concentration (EC50) was 20 to 100 nM. On THR alpha-LBD, the “THRα Emax” value is “C (<40)” and the EC50 was in the range of 200 to 1000 nM.
Taken in the same sequence, the figures for `O=c1[nH]c(=O)n(-c2cc(Cl)c(Oc3cc(S(=O)(=O)C4CC4)c(O)cn3)c(Cl)c2)nc1C(F)F` [Compound 128, 2-[3,5-dichloro-4-[(4-cyclopropylsulfonyl-5-hydroxy-2-pyridyl)oxy]phenyl]-6-(difluoromethyl)-1,2,4-triazine-3,5-dione] were “B (75~90)”, less than 2 nM, “A (85~110)” and 2 to 200 nM.
Consider `N#Cc1nn(-c2cc(Cl)c(Oc3cc(S(=O)(=O)C4CC4)c(O)cn3)c(Cl)c2)c(=O)[nH]c1=O` [Compound 129, 2-(3,5-dichloro-4-((4-(cyclopropylsulfonyl)-5-hydroxypyridin-2-yl)oxy)phenyl)-3,5-dioxo-2,3,4,5-tetrahydro-1,2,4-triazine-6-carbonitrile], for which, on THR beta-LBD, the “THRβ Emax” value is recorded as “A (90~110)” and the concentration for a half-maximal effect (EC50) lay in the range of 2 to 20 nM. On THR alpha-LBD, the “THRα Emax” value is listed as “B (40~85)” and the 50% effective concentration (EC50) was in the range of 2 to 200 nM.
For `N#C[C@H]1C[C@H](NS(=O)(=O)c2cc(Oc3c(Cl)cc(-n4nc(C(F)F)c(=O)[nH]c4=O)cc3Cl)ncc2O)C1` [Compound 130, N-(3-cyanocyclobutyl)-2-[2,6-dichloro-4-[6-(difluoromethyl)-3,5-dioxo-1,2,4-triazin-2-yl]phenoxy]-5-hydroxy-pyridine-4-sulfonamide] the same measures were “B (75~90)”, 2 to 20 nM, “B (40~85)” and 200 to 1000 nM.
`O=c1[nH]c(=O)n(-c2cc(Cl)c(Oc3cc(S(=O)(=O)NC4CC4)c(O)cn3)c(Cl)c2)nc1C(F)F` [Compound 131, N-cyclopropyl-2-(2,6-dichloro-4-(6-(difluoromethyl)-3,5-dioxo-4,5-dihydro-1,2,4-triazin-2(3H)-yl)phenoxy)-5-hydroxypyridine-4-sulfonamide]: on THR beta-LBD, the “THRβ Emax” value was “A (90~110)” and the EC50 is less than 2 nM. Further, at THR alpha-LBD, the “THRα Emax” value is listed as “A (85~110)” and the EC50 lay within 2 to 200 nM.
For `O=c1[nH]c(=O)n(-c2cc(Cl)c(Oc3cc(S(=O)(=O)N[C@H]4C[C@@H](O)C4)c(O)cn3)c(Cl)c2)nc1C(F)F` [Compound 132, 2-(2,6-dichloro-4-(6-(difluoromethyl)-3,5-dioxo-4,5-dihydro-1,2,4-triazin-2(3H)-yl)phenoxy)-5-hydroxy-N-((1s,3s)-3-hydroxycyclobutyl)pyridine-4-sulfonamide], on THR beta-LBD, the “THRβ Emax” value is listed as “A (90~110)” and the EC50 was in the range of 2 to 20 nM. In addition, on THR alpha-LBD, the “THRα Emax” value is “B (40~85)” and the EC50 was in the range of 200 to 1000 nM.
In the case of `O=c1[nH]c(=O)n(-c2cc(Cl)c(Oc3cc(S(=O)(=O)NC[C@H]4C[C@H](O)C4)c(O)cn3)c(Cl)c2)nc1C(F)F` [Compound 133, 2-(2,6-dichloro-4-(6-(difluoromethyl)-3,5-dioxo-4,5-dihydro-1,2,4-triazin-2(3H)-yl)phenoxy)-5-hydroxy-N-(((1r,3r)-3-hydroxycyclobutyl)methyl)pyridine-4-sulfonamide], at THR beta-LBD, the “THRβ Emax” value is listed as “B (75~90)” and the EC50 was 20 to 100 nM. On THR alpha-LBD, the “THRα Emax” value is on record as “B (40~85)” and the EC50 is more than 1000 nM.
Taken in the same sequence, the figures for `O=c1[nH]c(=O)n(-c2cc(Cl)c(Oc3cc(S(=O)(=O)NC[C@H]4C[C@@H](O)C4)c(O)cn3)c(Cl)c2)nc1C(F)F` [Compound 134, 2-(2,6-dichloro-4-(6-(difluoromethyl)-3,5-dioxo-4,5-dihydro-1,2,4-triazin-2(3H)-yl)phenoxy)-5-hydroxy-N-(((1s,3s)-3-hydroxycyclobutyl)methyl)pyridine-4-sulfonamide] were “B (75~90)”, 20 to 100 nM, “B (40~85)” and more than 1000 nM.
Turning to `N#CC1(NS(=O)(=O)c2cc(Oc3c(Cl)cc(-n4nc(C(F)F)c(=O)[nH]c4=O)cc3Cl)ncc2O)CC1` [Compound 135, N-(1-cyanocyclopropyl)-2-(2,6-dichloro-4-(6-(difluoromethyl)-3,5-dioxo-4,5-dihydro-1,2,4-triazin-2(3H)-yl)phenoxy)-5-hydroxypyridine-4-sulfonamide], at THR beta-LBD, the “THRβ Emax” value was “A (90~110)” and the EC50 was 2 to 20 nM. Besides, at THR alpha-LBD, the “THRα Emax” value was “A (85~110)” and the half-maximal effective concentration (EC50) fell in the range of 2 to 200 nM.
As for `O=c1[nH]c(=O)n(-c2cc(Cl)c(Oc3cc(S(=O)(=O)NC4CCOCC4)c(O)cn3)c(Cl)c2)nc1C(F)F` [Compound 136, 2-(2,6-dichloro-4-(6-(difluoromethyl)-3,5-dioxo-4,5-dihydro-1,2,4-triazin-2(3H)-yl)phenoxy)-5-hydroxy-N-(tetrahydro-2H-pyran-4-yl)pyridine-4-sulfonamide], on THR beta-LBD, the “THRβ Emax” value is “B (75~90)” and the EC50 was in the range of 2 to 20 nM. For the same compound, at THR alpha-LBD, the “THRα Emax” value is listed as “B (40~85)” and the EC50 was 2 to 200 nM.
Consider `CC(C)(O)CNS(=O)(=O)c1cc(Oc2c(Cl)cc(-n3nc(C(F)F)c(=O)[nH]c3=O)cc2Cl)ncc1O` [Compound 137, 2-(2,6-dichloro-4-(6-(difluoromethyl)-3,5-dioxo-4,5-dihydro-1,2,4-triazin-2(3H)-yl)phenoxy)-5-hydroxy-N-(2-hydroxy-2-methylpropyl)pyridine-4-sulfonamide], for which, at THR beta-LBD, the “THRβ Emax” value was “C (<75)” and the EC50 was in the range of 20 to 100 nM. Besides, on THR alpha-LBD, the “THRα Emax” value was “B (40~85)” and the 50% effective concentration (EC50) was more than 1000 nM.
